# Laboratory results taken from US20250214947A1, “3,4-DIHYDROQUINOXALINE-2-CARBOXIMIDE DERIVATIVE COMPOUND AND PHARMACEUTICAL COMPOSITION COMPRISING SAME FOR PREVENTING OR TREATING CANCER DISEASE” (Cureverse Incorporated, priority 2022, published 2025).
# What was measured:
# HDAC6 = molecular target: T1, HDAC6 (Homo sapiens, UniProt Q9UBN7); assay: Selective inhibitory effect, HDAC Fluorogenic assay kit, HDAC6; conditions: read-out: HDAC6 enzyme activity (%)
# T1 sequence (Q9UBN7 1-1215): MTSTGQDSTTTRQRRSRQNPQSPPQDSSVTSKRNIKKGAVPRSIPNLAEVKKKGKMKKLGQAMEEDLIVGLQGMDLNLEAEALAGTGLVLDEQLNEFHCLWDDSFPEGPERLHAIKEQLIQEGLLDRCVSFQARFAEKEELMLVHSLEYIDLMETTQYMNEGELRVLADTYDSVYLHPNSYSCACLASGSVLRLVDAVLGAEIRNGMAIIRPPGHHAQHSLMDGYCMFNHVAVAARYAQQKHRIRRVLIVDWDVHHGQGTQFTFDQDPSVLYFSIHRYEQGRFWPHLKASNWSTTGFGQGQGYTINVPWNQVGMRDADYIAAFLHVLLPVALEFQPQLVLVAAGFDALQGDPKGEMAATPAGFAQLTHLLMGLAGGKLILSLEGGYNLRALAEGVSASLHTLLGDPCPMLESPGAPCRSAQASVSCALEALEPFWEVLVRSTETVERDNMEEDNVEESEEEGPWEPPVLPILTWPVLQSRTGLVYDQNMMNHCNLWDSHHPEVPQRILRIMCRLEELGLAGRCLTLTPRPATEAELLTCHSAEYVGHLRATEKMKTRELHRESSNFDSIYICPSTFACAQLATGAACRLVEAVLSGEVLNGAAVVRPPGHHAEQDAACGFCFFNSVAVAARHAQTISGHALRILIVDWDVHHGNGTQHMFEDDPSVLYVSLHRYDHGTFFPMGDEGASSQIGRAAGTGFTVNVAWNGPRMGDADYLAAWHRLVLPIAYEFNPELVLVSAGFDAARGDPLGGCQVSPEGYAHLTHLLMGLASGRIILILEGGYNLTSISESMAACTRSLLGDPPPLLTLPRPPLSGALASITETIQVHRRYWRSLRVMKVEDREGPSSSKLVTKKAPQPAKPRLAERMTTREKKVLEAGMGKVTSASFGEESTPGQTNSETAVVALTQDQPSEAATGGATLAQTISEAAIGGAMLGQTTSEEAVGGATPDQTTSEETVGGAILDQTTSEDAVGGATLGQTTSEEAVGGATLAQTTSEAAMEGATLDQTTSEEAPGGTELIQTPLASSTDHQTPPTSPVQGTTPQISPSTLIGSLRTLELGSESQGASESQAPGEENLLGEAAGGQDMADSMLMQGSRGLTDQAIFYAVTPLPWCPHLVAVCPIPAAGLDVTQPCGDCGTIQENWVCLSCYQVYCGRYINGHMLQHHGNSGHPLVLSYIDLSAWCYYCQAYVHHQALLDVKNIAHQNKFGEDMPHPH
# Description: (§1) For analysis, HDAC substrate 3 was diluted in buffer to a concentration of 200 μM and used in HDAC 1, 2, 3, 6, and 10 assays, HDAC substrate 2A was diluted in buffer to a concentration of 200 μM and used in HDAC 4, 7, 9, and 11 assays, HDAC substrate 2A was diluted in buffer to a concentration of 20 μM and used in HDAC 8 assays. For the HDAC 11 assay, a dedicated buffer included in the kit was used separately, and the same buffer was used for the remaining assays. The compound of the Example was diluted to 1 mM (1% DMSO concentration) using DMSO to obtain a final concentration of 10 μM, and prepared by diluting 1/10 with assay buffer. In a 96-well black round-bottom plate, 5 μL of the diluted compound of the Example, 5 μL of the diluted HDAC substrate, 5 μL of BSA (1 mg/ml), 5 μL of the HDAC enzyme diluted to the appropriate concentration, and 30 μL of assay buffer were added, and the enzyme reaction was performed at 37° C. for 30 minutes. […] Afterwards, 50 μL of 2×HDAC developer was added to each well. After reacting for 15 minutes at room temperature, the fluorescence values at excitation wavelengths of 350-380 nm and emission wavelengths of 440-460 nm were measured using a microplate reader (Synergy Neo).
# HDAC2 = HDAC2 (Homo sapiens, UniProt Q92769); assay: Selective inhibitory effect, HDAC Fluorogenic assay kit, HDAC2; conditions: read-out: HDAC2 enzyme activity (%)
# Description: as §1
# Huh-7 cell lines = assay: Liver cancer model, Huh-7 cell lines subcutaneously transplanted into nude mice; type: in vivo; conditions: 50 mg/kg once a day
# Description: In addition, a liver cancer model was established by subcutaneously transplanting Huh-7 cell lines into nude mice. After establishing the liver cancer model, the mice were divided into two groups (group 1: vehicle administration group, group 2: 50 mg/kg Example 27 compound administration group). The drug was administered once a day for 12 times. To evaluate therapeutic efficacy, tumor volume was measured before drug administration and on days 4, 7, 10, 13, and 15 after drug administration. Tumor volume (mm^3) was calculated as follows (tumor volume (mm^3)=(A×B^2)/2, where A=tumor long axis, B=tumor short axis). Body weight was measured before administration and on days 4, 7, 10, 13, and 15 after drug administration during the drug administration period. Tumor was excised on day 15 after drug treatment and body weight was measured.
# HDAC8 = molecular target: T2, HDAC8 (Homo sapiens, UniProt Q9BY41); assay: Selective inhibitory effect, HDAC Fluorogenic assay kit, HDAC8; type: biochemical; conditions: versus HDAC1, 2, 3, 4, 6, 7, 9, 10, 11; 10 μM
# T2 construct: purchased BPS bioscience
# T2 sequence (Q9BY41 1-377): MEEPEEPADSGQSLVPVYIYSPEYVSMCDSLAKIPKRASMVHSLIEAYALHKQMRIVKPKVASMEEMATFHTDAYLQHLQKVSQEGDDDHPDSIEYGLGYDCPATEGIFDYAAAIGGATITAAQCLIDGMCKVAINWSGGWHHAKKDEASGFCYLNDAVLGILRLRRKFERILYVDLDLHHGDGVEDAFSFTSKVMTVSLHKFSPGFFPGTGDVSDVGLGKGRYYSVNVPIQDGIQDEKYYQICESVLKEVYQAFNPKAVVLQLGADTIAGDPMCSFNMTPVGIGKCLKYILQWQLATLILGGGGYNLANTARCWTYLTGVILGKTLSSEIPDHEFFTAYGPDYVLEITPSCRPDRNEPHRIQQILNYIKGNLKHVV
# Description: as §1
# HDAC3 = HDAC3 (Homo sapiens, UniProt O15379); assay: Selective inhibitory effect, HDAC Fluorogenic assay kit, HDAC3; conditions: read-out: HDAC3 enzyme activity (%)
# Description: as §1
# HDAC1 = HDAC1 (Homo sapiens, UniProt Q13547); assay: Selective inhibitory effect, HDAC Fluorogenic assay kit, HDAC1; conditions: read-out: HDAC1 enzyme activity (%)
# Description: as §1
# PC-3 cell lines = assay: Prostate cancer model, PC-3 cell lines subcutaneously transplanted into nude mice; type: in vivo; conditions: 50 mg/kg orally once a day
# Description: A prostate cancer model was established by subcutaneously transplanting PC-3 cell lines into nude mice, and the mice were divided into two groups (group 1: vehicle administration group (10% DSMO, 30% PEG400, 60% DW), group 2: 50 mg/kg Example 27 compound administration group). The drug was administered orally once a day for 12 times. To evaluate the therapeutic efficacy, tumors were […] before drug administration and on days 3, 6, 8, 10, 12, and 14 after drug administration, and tumor volumes were measured. Tumor volume (mm^3) was calculated as follows (tumor volume (mm^3)=(A×B^2)/2, where A=tumor long axis, B=tumor short axis), and the results are shown in FIG. 2.
# Meanwhile, on day 12 of drug administration, the tumor was removed and its weight was measured, the results are shown in FIG. 3, and a photograph of the removed tumor was taken and shown in FIG. 4.
# Sequence of HDAC3 (O15379 whole entry): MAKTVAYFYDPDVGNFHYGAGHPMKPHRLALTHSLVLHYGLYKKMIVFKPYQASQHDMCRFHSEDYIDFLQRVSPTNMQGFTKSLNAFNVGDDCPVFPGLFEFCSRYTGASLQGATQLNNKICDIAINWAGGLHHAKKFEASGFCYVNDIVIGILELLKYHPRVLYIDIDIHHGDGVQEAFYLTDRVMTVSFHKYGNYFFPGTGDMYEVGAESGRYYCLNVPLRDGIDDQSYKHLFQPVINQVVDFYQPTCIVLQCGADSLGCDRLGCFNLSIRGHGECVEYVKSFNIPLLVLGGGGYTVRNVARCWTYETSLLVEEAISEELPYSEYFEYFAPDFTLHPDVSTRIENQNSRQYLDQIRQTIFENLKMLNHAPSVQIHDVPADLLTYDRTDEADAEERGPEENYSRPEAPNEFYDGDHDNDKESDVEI
# Sequence of HDAC3 (Q9Y618 395-489 partner limits assumed): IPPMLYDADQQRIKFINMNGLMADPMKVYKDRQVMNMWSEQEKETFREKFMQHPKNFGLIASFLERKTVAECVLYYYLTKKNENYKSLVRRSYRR
# Sequence of HDAC1 (Q13547 whole entry): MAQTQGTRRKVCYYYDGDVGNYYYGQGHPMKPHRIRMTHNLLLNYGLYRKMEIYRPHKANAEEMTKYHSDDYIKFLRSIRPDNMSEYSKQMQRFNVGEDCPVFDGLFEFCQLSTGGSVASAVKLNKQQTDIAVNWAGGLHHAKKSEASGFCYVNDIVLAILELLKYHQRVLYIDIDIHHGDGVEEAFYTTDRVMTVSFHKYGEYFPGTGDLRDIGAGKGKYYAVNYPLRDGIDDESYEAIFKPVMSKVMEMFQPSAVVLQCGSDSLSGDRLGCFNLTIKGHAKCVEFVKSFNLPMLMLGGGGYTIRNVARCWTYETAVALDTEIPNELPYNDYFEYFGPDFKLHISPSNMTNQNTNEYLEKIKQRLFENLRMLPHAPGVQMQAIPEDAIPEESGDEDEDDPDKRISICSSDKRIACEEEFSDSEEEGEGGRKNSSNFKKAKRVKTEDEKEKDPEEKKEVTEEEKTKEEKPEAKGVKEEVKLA
# Sequence of HDAC2 (Q92769 whole entry): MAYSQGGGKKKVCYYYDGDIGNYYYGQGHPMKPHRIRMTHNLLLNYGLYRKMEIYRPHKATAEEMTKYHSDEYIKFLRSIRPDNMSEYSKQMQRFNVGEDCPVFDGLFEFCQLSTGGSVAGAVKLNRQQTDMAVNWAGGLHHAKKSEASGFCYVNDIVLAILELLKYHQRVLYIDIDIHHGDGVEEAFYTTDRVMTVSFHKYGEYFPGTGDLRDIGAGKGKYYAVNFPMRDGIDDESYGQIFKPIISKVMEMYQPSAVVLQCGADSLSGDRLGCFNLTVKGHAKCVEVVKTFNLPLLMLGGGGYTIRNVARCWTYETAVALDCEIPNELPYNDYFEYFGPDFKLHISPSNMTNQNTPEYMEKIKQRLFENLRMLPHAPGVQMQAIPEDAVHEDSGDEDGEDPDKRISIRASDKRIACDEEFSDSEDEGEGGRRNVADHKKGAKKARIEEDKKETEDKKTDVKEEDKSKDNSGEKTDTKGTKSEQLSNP
compound,measurement,setting,value
"Cc1cc2nc(C(=O)NCCc3c[nH]c4ccc(O)cc34)c(=O)n(C[C@H](O)[C@H](O)[C@H](O)CO)c2cc1C [Example 27, N-(2-(5-hydroxy-1H-indol-3-yl)ethyl)-6,7-dimethyl-3-oxo-4-((2S,3S,4R)-2,3,4,5-tetrahydroxypentyl)-3,4-dihydroquinoxaline-2-carboxamide]",remaining activity at 10 µM,HDAC6,43.7%
same,remaining activity at 10 µM,HDAC2,91.2%
same,tumor volume (in words),"Huh-7 cell lines; 12 times, up to day 15, p<0.005 vs vehicle, FIG. 7A",tumor growth inhibitory effect
same,tumor weight (in words),"Huh-7 cell lines; tumor removed on day 15, p<0.0005 vs vehicle, FIGS. 7B and 7C",tumor weight of the vehicle group was significantly higher than that of the Example 27 compound administration group
same,selective inhibitory effect on HDAC8 (in words),HDAC8,selective and excellent inhibitory activity only against HDAC8
same,remaining activity at 10 µM,HDAC3,73.1%
same,remaining activity at 10 µM,HDAC1,76.2%
same,tumor volume (in words),"PC-3 cell lines; 12 times, up to day 14, p<0.05 vs vehicle, FIG. 2",significantly reduced tumor volume growth rate compared to group 1
same,tumor weight (in words),"PC-3 cell lines; tumor removed on day 12, p<0.0005 vs vehicle, FIG. 3",vehicle administration group (group 1) had a significantly higher tumor weight than the Example 27 compound administration group
